The source of these data is patent publication US7902373B2 (Pfizer Inc, priority 2006, dated 2011).

Sequence of human recombinant H-PGDS (O60760 whole entry): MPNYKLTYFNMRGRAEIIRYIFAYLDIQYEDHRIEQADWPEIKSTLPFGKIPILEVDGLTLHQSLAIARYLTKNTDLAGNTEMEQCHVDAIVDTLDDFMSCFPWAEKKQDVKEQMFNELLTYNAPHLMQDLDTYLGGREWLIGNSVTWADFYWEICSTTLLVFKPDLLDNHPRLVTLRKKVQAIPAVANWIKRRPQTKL

This test addresses human recombinant H-PGDS (Homo sapiens, UniProt O60760). As to the kind of experiment: Fluorescence intensity h-PGDS TBA enzyme assay. It is filed as biochemical. The note with it: Examples up to 622 (and 3a, 3b).
Take `O=C(NC1CCN(CCCC(F)(F)F)CC1)c1ccc(-c2cccc(F)c2)nc1` [Example 312, 6-(3-Fluorophenyl)-N-[1-(4,4,4-trifluorobutyl)piperidin-4-yl]nicotinamide]: the IC50 (in general, the point on the concentration scale where inhibition reaches its midpoint) worked out at 1.08 nM.

`O=C(NC1CCN(Cc2ccc3c(c2)CCO3)CC1)c1ccc(-c2cccc(F)c2)nc1` [Example 313, N-[1-(2,3-Dihydro-1-benzofuran-5-ylmethyl)piperidin-4-yl]-6-(3-fluorophenyl)nicotinamide]: the IC50 is 2.15 nM.

As to `Cn1nc(C(F)(F)F)c(CN2CCC(NC(=O)c3ccc(-c4cccc(F)c4)nc3)CC2)c1Cl` [Example 314, N-(1-{[5-Chloro-1-methyl-3-(trifluoromethyl)-1H-pyrazol-4-yl]methyl}piperidin-4-yl)-6-(3-fluorophenyl)nicotinamide], the IC50 was found to be 0.24 nM.

`O=C(NC1CCN(Cc2cccc(OC(F)F)c2)CC1)c1ccc(-c2cccc(F)c2)nc1` [Example 315, N-{1-[3-(Difluoromethoxy)benzyl]piperidin-4-yl}-6-(3-fluorophenyl)nicotinamide]: the 50% inhibitory concentration (IC50) was determined as 0.549 nM.

Regarding `CCOc1c(CN2CCC(NC(=O)c3ccc(-c4cccc(F)c4)nc3)CC2)cccc1OC` [Example 316, N-[1-(2-Ethoxy-3-methoxybenzyl)piperidin-4-yl]-6-(3-fluorophenyl)nicotinamide], the IC50 is 1.36 nM.

Turning to `O=C(NC1CCN(Cc2ccc(C(F)(F)F)nc2)CC1)c1ccc(-c2cccc(F)c2)nc1` [Example 317, 6-(3-Fluorophenyl)-N-(1-{[6-(trifluoromethyl)pyridin-3-yl]methyl}piperidin-4-yl)nicotinamide], the IC50 is 2.07 nM.

Regarding `Cc1ccc(CN2CCC(NC(=O)c3ccc(-c4cccc(F)c4)nc3)CC2)c(F)c1F` [Example 318, N-[1-(2,3-Difluoro-4-methylbenzyl)piperidin-4-yl]-6-(3-fluorophenyl)nicotinamide], the IC50 was determined as 1.18 nM.

On to `Cc1nn(C)c(Cl)c1CN1CCC(NC(=O)c2ccc(-c3cccc(F)c3)nc2)CC1` [Example 319, N-{1-[(5-Chloro-1,3-dimethyl-1H-pyrazol-4-yl)methyl]piperidin-4-yl}-6-(3-fluorophenyl)nicotinamide], for which the IC50 came out at 0.384 nM.

Take `O=C(NC1CCN(Cc2c[nH]c(-c3ccccc3)n2)CC1)c1ccc(-c2cccc(F)c2)nc1` [Example 320, 6-(3-Fluorophenyl)-N-{1-[(2-phenyl-1H-imidazol-4-yl)methyl]piperidin-4-yl}nicotinamide]: the IC50 came out at 2.34 nM.

For the compound `Cn1cc(Br)c(CN2CCC(NC(=O)c3ccc(-c4cccc(F)c4)nc3)CC2)n1` [Example 321, N-{1-[(4-Bromo-1-methyl-1H-pyrazol-3-yl)methyl]piperidin-4-yl}-6-(3-fluorophenyl)nicotinamide], the IC50 is 0.365 nM.

`COc1ccc(CCCN2CCC(NC(=O)c3ccc(-c4cccc(F)c4)nc3)CC2)cc1` [Example 322, 6-(3-Fluorophenyl)-N-{1-[3-(4-methoxyphenyl)propyl]piperidin-4-yl}nicotinamide]: the IC50 amounted to 0.748 nM.

With `COc1ccc(F)c(CN2CCC(NC(=O)c3ccc(-c4cccc(F)c4)nc3)CC2)c1` [Example 323, N-[1-(2-Fluoro-5-methoxybenzyl)piperidin-4-yl]-6-(3-fluorophenyl)nicotinamide], the IC50 worked out at 0.622 nM.

With `COc1ccc(CN2CCC(NC(=O)c3ccc(-c4cccc(F)c4)nc3)CC2)c(F)c1` [Example 324, N-[1-(2-Fluoro-4-methoxybenzyl)piperidin-4-yl]-6-(3-fluorophenyl)nicotinamide], the IC50 worked out at 0.531 nM.

As to `CCCCCN1CCC(NC(=O)c2ccc(-c3cccc(F)c3)nc2)CC1` [Example 325, 6-(3-Fluorophenyl)-N-(1-pentylpiperidin-4-yl)nicotinamide], the IC50 worked out at 4.01 nM.

For the compound `CC(C)Oc1ccccc1CN1CCC(NC(=O)c2ccc(-c3cccc(F)c3)nc2)CC1` [Example 326, 6-(3-Fluorophenyl)-N-[1-(2-isopropoxybenzyl)piperidin-4-yl]nicotinamide], the IC50 stood at 2.45 nM.

Consider `COCc1cc(CN2CCC(NC(=O)c3ccc(-c4cccc(F)c4)nc3)CC2)ccc1OC` [Example 327, 6-(3-Fluorophenyl)-N-{1-[4-methoxy-3-(methoxymethyl)benzyl]piperidin-4-yl}nicotinamide], for which the IC50 amounted to 1.55 nM.

In the case of `Cc1nn(C)cc1CN1CCC(NC(=O)c2ccc(-c3cccc(F)c3)nc2)CC1` [Example 328, N-{1-[(1,3-Dimethyl-1H-pyrazol-4-yl)methyl]piperidin-4-yl}-6-(3-fluorophenyl)nicotinamide], the IC50 was found to be 0.566 nM.

In the case of `CCn1ncc(CN2CCC(NC(=O)c3ccc(-c4cccc(F)c4)nc3)CC2)c1C` [Example 329, N-{1-[(1-Ethyl-5-methyl-1H-pyrazol-4-yl)methyl]piperidin-4-yl}-6-(3-fluorophenyl)nicotinamide], the IC50 is 1.94 nM.

As for `O=C(NC1CCN(Cc2ccc(-c3ncccn3)cc2)CC1)c1ccc(-c2cccc(F)c2)nc1` [Example 330, 6-(3-Fluorophenyl)-N-[1-(4-pyrimidin-2-ylbenzyl)piperidin-4-yl]nicotinamide], the half-inhibitory concentration (IC50) is 1.71 nM.

Take `O=C(NC1CCN(Cc2cc(F)cc(F)c2F)CC1)c1ccc(-c2cccc(F)c2)nc1` [Example 331, 6-(3-Fluorophenyl)-N-[1-(2,3,5-trifluorobenzyl)piperidin-4-yl]nicotinamide]: the IC50 is 2.71 nM.

Consider `O=C(NC1CCN(Cc2cc(F)c(F)c(F)c2)CC1)c1ccc(-c2cccc(F)c2)nc1` [Example 332, 6-(3-fluorophenyl)-N-[1-(345-trifluorobenzyl)piperidin-4-yl]nicotinamide], for which the IC50 stood at 1.19 nM.

As for `CC(C)(C)OC(=O)N1CCCC(CN2CCC(NC(=O)c3ccc(-c4cccc(F)c4)nc3)CC2)C1` (stereo not drawn) [Example 333, tert-Butyl 3-{[4-({[6-(3-fluorophenyl)pyridin-3-yl]carbonyl}amino)piperidin-1-yl]methyl}piperidine-1-carboxylate], the IC50 came to 1.04 nM.

On to `CC(C)(C)OC(=O)NC1(CN2CCC(NC(=O)c3ccc(-c4cccc(F)c4)nc3)CC2)CCC1` [Example 334, tert-Butyl (1-{[4-({[6-(3-fluorophenyl)pyridin-3-yl]carbonyl}amino)piperidin-1-yl]methyl}cyclobutyl)carbamate], for which the IC50 amounted to 2.74 nM.

With `Cc1nn(-c2ccccc2)c(C)c1CN1CCC(NC(=O)c2ccc(-c3cccc(F)c3)nc2)CC1` [Example 335, N-{1-[(3,5-Dimethyl-1-phenyl-1H-pyrazol-4-yl)methyl]piperidin-4-yl}-6-(3-fluorophenyl)nicotinamide], the IC50 stood at 0.776 nM.

As for `CC(CCCC(C)(C)O)CCN1CCC(NC(=O)c2ccc(-c3cccc(F)c3)nc2)CC1` (stereo not drawn) [Example 336, 6-(3-Fluorophenyl)-N-[1-(7-hydroxy-3,7-dimethyloctyl)piperidin-4-yl]nicotinamide], the IC50 was found to be 1.82 nM.

On to `O=C(NC1CCN(Cc2nc3ccccc3[nH]2)CC1)c1ccc(-c2cccc(F)c2)nc1` [Example 337, N-[1-(1H-Benzimidazol-2-ylmethyl)piperidin-4-yl]-6-(3-fluorophenyl)nicotinamide], for which the IC50 amounted to 1.42 nM.

As to `CCOc1ccc2nc(CN3CCC(NC(=O)c4ccc(-c5cccc(F)c5)nc4)CC3)ccc2c1` [Example 338], the IC50 is 62.7 nM.
